# Laboratory results from US5827737A, “In vitro activation of cytotoxic T cells” (The Scripps Research Institute, priority 1996, dated 1998).
# Where no end group is shown, it is not given here.
# T1: K^b sol (Mus musculus, UniProt P01901)
# T1 construct: K^b α1α2α3 domains (274 residues) and murine β2 microglobulin (99 residues); made in house; host or cells: Drosophila S2/M3 cells
# T1 sequence (P01901 22-295): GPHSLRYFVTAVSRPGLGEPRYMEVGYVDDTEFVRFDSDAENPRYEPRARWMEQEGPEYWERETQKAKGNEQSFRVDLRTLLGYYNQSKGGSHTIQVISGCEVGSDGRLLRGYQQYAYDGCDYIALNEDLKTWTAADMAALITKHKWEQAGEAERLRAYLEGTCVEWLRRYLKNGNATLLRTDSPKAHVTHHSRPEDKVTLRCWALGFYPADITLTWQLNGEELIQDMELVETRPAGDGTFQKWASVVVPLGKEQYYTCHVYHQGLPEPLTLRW
# T1 sequence (P01887 21-119 partner): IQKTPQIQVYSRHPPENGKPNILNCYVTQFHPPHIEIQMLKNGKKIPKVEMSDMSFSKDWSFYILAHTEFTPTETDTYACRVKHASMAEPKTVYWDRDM
# B1: ovalbumin protein: ovalbumin (Sigma Chem. Co.) osmotically loaded into the cells (protein, UniProt P01012 2-386, looked up)
# Ovalbumin: GSIGAASMEFCFDVFKELKVHHANENIFYCPIAIMSALAMVYLGAKDSTRTQINKVVRFDKLPGFGDSIEAQCGTSVNVHSSLRDILNQITKPNDVYSFSLASRLYAEERYPILPEYLQCVKELYRGGLEPINFQTAADQARELINSWVESQTNGIIRNVLQPSSVDSQTAMVLVNAIVFKGLWEKAFKDEDTQAMPFRVTEQESKPVQMMYQIGLFRVASMASEKMKILELPFASGTMSMLVLLPDEVSGLEQLESIINFEKLTEWTSSNVMEERKIKVYLPRMKMEEKYNLTSVLMAMGITDVFSSSANLSGISSAESLKISQAVHAAHAEINEAGREVVGSAEAGVDAASVSEEFRADHPFLFCIKHIATNAVLFFGRCVSP
# Test system: B3/CD8 T cell hybridoma
# Experiment: Antigen presentation assay: IL-2 production by B3/CD8 measured with CTLL ^3 H thymidine incorporation
# Settings: peptide added to the culture medium, or protein osmotically loaded
row,Molecule,T cell recognition of K^b -expressing Drosophila cells (IL-2 production)
1,B1,no recognition occurred

# Molecular target: T1, K^b sol
# Experiment: biochemical
# Assay type: binding, murine
# Settings: not given
row,Molecule,Kd
1,DLRGYVYQGL [VSV-10N],390 nM
2,"GYVYQGL [VSV-7, GYVYQGL]",53 nM
3,LRGYVYQGL [VSV-9N],7.3 nM
4,RGYVYQGLK [VSV-9C],6.9 nM
5,RGYVYQGLKS [VSV-10C],21 nM

# Same assay, conditions: read-out: KD
row,Molecule,Kd
1,"CC[C@H](C)[C@H](NC(=O)[C@@H](NC(=O)[C@@H](N)CO)[C@@H](C)CC)C(=O)N[C@@H](CC(N)=O)C(=O)N[C@@H](Cc1ccccc1)C(=O)N[C@@H](CCC(=O)O)C(=O)N[C@@H](CCCCN)C(=O)N[C@@H](CC(C)C)C(=O)O [OVA-8, reference compound]",4.1 nM
2,LESIINFEKL [OVA-10N],280 nM
3,SIINFEKLT [OVA-9C],11 nM
4,SIINFEKLTE [OVA-10C],14 nM
